Experimental data: patent publication US10925823B2, “Synergistic antioxidant compositions” (The Procter & Gamble Company, priority 2018, dated 2021)

Test: Oxygen Radical Absorbance Capacity (ORAC) Peroxynitrite Assay
Details: Trolox equivalent; SIN-1 as peroxynitrite source, dihydrorhodamine-123 probe, 37° C.; FIG. 4
From the text: The ORAC assay is the most common method for assessing antioxidant activity. It is based on evaluating the capacity of a test material to protect a probe (e.g., a chromagen) from its damage by oxygen radicals (in this case, peroxynitrite). Results are expressed as micromole Trolox Equivalency per gram of the test material:
This methodology is further discussed in: “Development and validation of an improved oxygen radical absorbance capacity assay using fluorescein as the fluorescent probe.”; Ou, Boxin, Maureen Hampsch-Woodill, and Ronald L. Prior. Journal of agricultural and food chemistry 49.10 (2001): 4619-4626 incorporated herein by reference; and further in “Development and validation of oxygen radical absorbance capacity assay for lipophilic antioxidants using randomly methylated β-cyclodextrin as the solubility enhancer.”, Huang, Dejian, et al. Journal of Agricultural and Food Chemistry 50.7 (2002): 1815-1821, incorporated herein by reference.
Experimental Methodology: The ORAC Peroxynitrite measures the peroxynitrite radical. […] Dihydrorhodamine-123 is the chosen target protein, whose loss of fluorescence (with excitation at 485 nm and emission at 528 nm) is an indication of the extent of damage from its reaction with the peroxynitrite radical. […] Kinetic fluorescence profile is detected using Biotek plate reader with excitation at 485 nm and emission at 528 nm, at 37° C. […]

[O-]n1ccccc1=S.[O-]n1ccccc1=S.[Zn+2] [ZPT, zinc salt of 1-hydroxy-2-pyridinethione]
ORAC peroxynitrite antioxidant activity: only individual material that showed appreciable activity
